EC50 and CC50 data for 18 compounds are collected here from US9259426B2, “4,6-di- and 2,4,6-trisubstituted quinazoline derivatives useful for treating viral infections” (Gilead Sciences, Inc., priority 2006, dated 2016).

Data set [1] has as its system HCV replicon in human hepatoma Huh-7 cell line. The data set is described as follows: Anti-HCV replicon assay (EC50, luciferase readout). In kind it is cell-based. The following applies: Hepatitis C virus, Huh-7, 72 h, read-out: EC50 (50% effective concentration). How it is done: (§1) The anti HCV activity of the quinazoline derivatives of this invention was tested in a human hepatoma Huh-7 cell line harbouring a HCV replicon. The assay comprised the following steps:
(§2) Step 1: compound preparation and serial dilution
(§3) • 1. for water soluble quinazoline derivatives, a volume of 500 μL of solution in cell media (DMEM, 10% FBS, P/S, L-Glutamine) was prepared with a concentration being twice the concentration of the starting final serial dilution concentration. A volume of 150 μL of the solution was added to the pre-specified wells in column 1 of a 96-well cell culture plate (PerkinElmer, white plate, cat. #6005181, for EC50 assay; black plate, cat. #6005182 for CC50 assay). The rest of the plate, columns 2-12, was filled with 100 μL of cell media. The plate was then placed on a Precision 2000 Workstation to start the serial dilution. Compounds were diluted three times each step from column 1 to column 10. Column 11 was used as a blank control (no compound added). • 2. for quinazoline derivatives requiring DMSO to dissolve, serial dilution is performed in 50% DMSO in a 384-well plate. A solution containing a compound at 100-fold concentration of the starting final serial dilution concentration was prepared in 50% DMSO and added to the pre-specified wells in column 1 of a polypropylene 384-well plate. The plate was then placed on a Precision 2000 Workstation to start the serial dilution. After the serial dilution, a volume of 2 μL of the solution was transferred from the 384-well plate to a 96-well cell culture plate containing 100 μL of cell media on a Biomek FX Workstation. The DMSO concentration in the final assay condition was 0.5% after cells are added to the plate and the total volume in each well is brought to 200 μL. Step 2: to each well of the serial dilution plate prepared above, 100 μL of cell media containing 6000 suspended Huh-7 HCV replicon cells was added with a Multidrop workstation. The plates were incubated for 3 days at 37° C. with 5% CO2. Step 3: Detection: • a) for the EC50 assay, the media in a 96-well cell culture plate was aspirated with a Biotek EL405 plate-washer. A volume of 200 μL of a solution containing a 1:1 mixture of cell-lysis buffer (Promega, Luciferase Cell Culture Lysis 5× Reagent, cat. #E1531) and luciferase substrate solution (Promega, Luciferase Assay, cat.# E4550) was added to each well of the plate with Multidrop. The plate was incubated for 30 minutes at room temperature before the luminescence signal was measured with a TopCount plate-reader. • b) for the CC50 assay, a volume of 100 μL of pre-mixed CeliTiter-Glo (Promega, cat.# G7572) solution is added directly to the cell culture in each well of the plate and the luminescence signal is measured with a TopCount plate-reader after 10 minutes of incubation at room temperature.
(§4) Results in the table below are expressed by the following data: • the 50% cytostatic concentration (CC50), i.e. the concentration that results in 50% inhibition of cell growth, and • the 50% effective concentration (EC50), i.e. the concentration that protects 50% of the cell monolayer from virus-induced cytopathic effect.
On the technique in general: Replicon systems follow genome replication, usually without infectious particles.

The nature of data set [2]: CC50 assay (CellTiter-Glo) in Huh-7 HCV replicon cells. In kind it is cell-based, human. The following applies: human, 3 days incubation, CellTiter-Glo luminescence, read-out: CC50 (50% cytostatic concentration). The procedure: as §1, §2, §3, §4
The next data set deals with Huh-7 HCV replicon cells. Described as above. Type of data set: cell-based, human. The following applies: 3 days incubation, CellTiter-Glo luminescence, read-out: CC50 (50% cytostatic concentration). How it is done: as §1, §2, §3, §4
(ATP-based viability assays read luminescence as a measure of living cells.)

Each structure is given as a SMILES string.

Take `COc1ccc(-c2ccc3nc(N)nc(N4CCOCC4)c3c2)cc1OC` [Example 14, 2-amino-6-(3,4-dimethoxyphenyl)-4-(N-morpholino)quinazoline]: the EC50 in data set [1] was below 0.3 µM. Moreover, the CC50 at 3 days in data set [2] is below 10 µM. For `COc1ccc(-c2ccc3nc(N)nc(Nc4cccc(Br)c4)c3c2)cc1OC` [Example 16, 2-amino-6-(3,4-dimethoxyphenyl)-4-[N-(3-bromo)-anilino]-quinazoline] the same measures were below 0.3 µM and above 20 µM.

As to `Nc1nc(N2CCOCC2)c2cc(-c3ccc(Cl)cc3)ccc2n1` [Example 27, 2-amino-6-(4-chlorophenyl)-4-(N-morpholino)-quinazoline], the EC50 in data set [1] was in the range of 0.3 to 1 µM. For the same compound, the CC50 at 3 days in data set [2] lay in the range of 10 to 20 µM. With `Nc1nc(N2CCOCC2)c2cc(-c3ccc(F)cc3)ccc2n1` [Example 28, 2-amino-6-(4-fluorophenyl)-4-(N-morpholino)-quinazoline], in data set [1], the EC50 lay in the range of 0.3 to 1 µM. In addition, the CC50 at 3 days in data set [2] is below 10 µM.

As to `CC(=O)Nc1ccc(-c2ccc3nc(N)nc(N4CCOCC4)c3c2)cc1` [Example 30, 2-amino-6-(4-acetamidophenyl)-4-(N-morpholino)quinazoline], the EC50 in data set [1] lay within 1 to 10 µM. The CC50 at 3 days in data set [2] was 10 to 20 µM.

Regarding `CC(=O)Nc1ccc(-c2ccc3nc(N)nc(N4CCCCC4)c3c2)cc1` [Example 31, 2-amino-6-(4-acetamidophenyl)-4-(N-piperidino)quinazoline], in data set [1], the EC50 was in the range of 1 to 10 µM. Further, the CC50 at 3 days in data set [2] was 10 to 20 µM. For `CC(=O)Nc1ccc(-c2ccc3nc(N)nc(N4CCN(C(C)=O)CC4)c3c2)cc1` [Example 32, 2-amino-6-(4-acetamidophenyl)-4-(N-acetylpiperazino)quinazoline] the same measures were 1 to 10 µM and above 20 µM.

Turning to `CC(=O)Nc1ccc(-c2ccc3nc(N)nc(N4CCN(C)CC4)c3c2)cc1` [Example 34, 2-amino-6-(4-acetamidophenyl)-4-(N-methylpiperazino)quinazoline], the EC50 in data set [1] is 1 to 10 µM. Also, the CC50 at 3 days in data set [2] is 10 to 20 µM. Turning to `Fc1ccc(-c2ccc3ncnc(N4CCOCC4)c3c2)cc1` [Example 37, 6-(4-fluorophenyl)-4-(N-morpholino)-quinazoline], in data set [1], the EC50 was in the range of 1 to 10 µM. The CC50 at 3 days in data set [2] is above 20 µM. For `Nc1ncnc2ccc(-c3ccc(F)cc3)cc12` [Example 39, 4-amino-6-(4-fluorophenyl)-quinazoline] the same measures were 1 to 10 µM and above 20 µM. For `CCCNc1ncnc2ccc(-c3ccc(F)cc3)cc12` [Example 43, 4-(N-propylamino)-6-(4-fluorophenyl)-quinazoline], the EC50 in data set [1] lay in the range of 1 to 10 µM. Also, in data set [2], the CC50 at 3 days is above 20 µM. `CN(C)c1ncnc2ccc(-c3ccc(F)cc3)cc12` [Example 45, 4-(N,N-dimethylamino)-6-(4-fluorophenyl)-quinazoline]: the EC50 in data set [1] was in the range of 1 to 10 µM. The CC50 at 3 days in data set [2] is above 20 µM. For `Fc1ccc(-c2ccc3ncnc(NC4CC4)c3c2)cc1` [Example 47, 4-(N-cyclopropylamino)-6-(4-fluorophenyl)-quinazoline] the same measures were 1 to 10 µM and above 20 µM.

In the case of `Nc1nc(Nc2ccccc2)c2cc(-c3ccc(F)cc3)ccc2n1` [Example 48, 2-amino-6-(4-fluorophenyl)-4-(N-anilino)-quinazoline], the EC50 in data set [1] was in the range of 0.3 to 1 µM. For the same compound, the CC50 at 3 days in data set [2] is below 10 µM. On to `NS(=O)(=O)c1ccc(CNc2nc(NCC(F)(F)F)c3cc(-c4ccc(C(=O)NC5CC5)cc4)ccc3n2)cc1` [Example 51, N-Cyclopropyl-4-[2-(4-sulfamoyl-benzylamino)-4-(2,2,2-trifluoroethylamino)-quinazolin-6-yl]-benzamide], for which, in data set [1], the EC50 is below 0.3 µM. In addition, the CC50 at 3 days in data set [2] was above 20 µM. For `NS(=O)(=O)c1ccc(CNc2nc(NCC(F)(F)F)c3cc(-c4ccc(F)cc4)ccc3n2)cc1` [Example 52, 4-{[6-(4-Fluoro-phenyl)-4-(2,2,2-trifluoro-ethylamino)quinazolin-2-ylamino]-methyl}-benzenesulfonamide] the same measures were below 0.3 µM and below 10 µM. For `Cn1ccc(Nc2nc(NC3CC3)c3cc(-c4ccc(F)cc4)ccc3n2)n1` [Example 54, N4-cyclopropyl-6-(4-fluoro-phenyl)-N2-(1-methyl-1H-pyrazol-3-yl)-quinazoline-2,4-diamine] the same measures were below 0.3 µM and below 10 µM. With `COCCNc1nc(N)nc2ccc(-c3ccc(C(=O)NC4CC4)cc3)cc12` [Example 56, 4-[2-Amino-4-(2-methoxy-ethylamino)-quinazolin-6-yl]-N cyclopropyl-benzamide], the CC50 in the data set on Huh-7 HCV replicon cells is above 20 µM.
